# In patent publication US6806230B1, “Pyrimidine derivatives and herbicides containing them” (Kumiai Chemical Industry Co., Ltd., priority 1999, dated 2004):
# Test system: barnyard grass (Eo)
# Assay: Test Example 1: herbicidal effects by flooded paddy field treatment;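 also: 0-5 growth inhibition grade; 5 = over 90%; 4 = 70-90%; 3 = 50-70%; 2 = 30-50%; 1 = 10-30%; 0 = under 10%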
# Type: in vivo
# Settings: dose 100 gai/10a, examined on 21st day after treatment, index 0-5 per Table 44
# How it was run: (§1)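 Puddled paddy soil in pots, seeds sown, 3 cm flood. Day after sowing: wettable powder diluted in water, applied dropwise to water surface, 100 g a.i./10 ares. Greenhouse; visual herbicidal rating at day 21 post-treatment.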
row,SMILES,"Herbicidal effect index, Eo"
1,Cc1ccc(CC(=O)N(C)C(c2cncnc2C(F)(F)F)C(C)(C)C)cc1 (racemic) [Compound 1-55],5
2,CC(C)C(c1cncnc1C(F)(F)F)N(C)C(=O)Cc1ccc(I)cc1 (racemic) [Compound 1-42],5
3,CCN(C(=O)Cc1ccc(C#N)cc1)C(c1cncnc1C(F)(F)F)C(C)C (racemic) [Compound 1-98],5
4,CC(C)C(c1cncnc1C(F)(F)F)N(C)C(=O)Cc1ccc(OC(F)(F)F)cc1 (racemic) [Compound 1-95],5
5,CN(C(=O)Cc1ccc(F)cc1)C(c1cncnc1C(F)(F)F)C(C)(C)C (racemic) [Compound 1-53],5
6,CCC(C)C(c1cncnc1C(F)(F)F)N(C)C(=O)Cc1ccc(Cl)cc1 (mixture of isomers) [Compound 1-59],5
7,CC(C)C(c1cncnc1C(F)(F)F)N(C)C(=O)Cc1ccc(Cl)cc1F (racemic) [Compound 1-46],5

# Test system: monochoria (Mo)
# Assay: as above
# Type: in vivo
# Settings: dose 100 gai/10a, examined on 21st day after treatment, index 0-5 per Table 44
# How it was run: as §1
row,SMILES,"Herbicidal effect index, Mo"
1,Cc1ccc(CC(=O)N(C)C(c2cncnc2C(F)(F)F)C(C)(C)C)cc1 (racemic) [Compound 1-55],5
2,CC(C)C(c1cncnc1C(F)(F)F)N(C)C(=O)Cc1ccc(I)cc1 (racemic) [Compound 1-42],5
3,CCN(C(=O)Cc1ccc(C#N)cc1)C(c1cncnc1C(F)(F)F)C(C)C (racemic) [Compound 1-98],5
4,CC(C)C(c1cncnc1C(F)(F)F)N(C)C(=O)Cc1ccc(OC(F)(F)F)cc1 (racemic) [Compound 1-95],5
5,CN(C(=O)Cc1ccc(F)cc1)C(c1cncnc1C(F)(F)F)C(C)(C)C (racemic) [Compound 1-53],5
6,CCC(C)C(c1cncnc1C(F)(F)F)N(C)C(=O)Cc1ccc(Cl)cc1 (mixture of isomers) [Compound 1-59],5
7,CC(C)C(c1cncnc1C(F)(F)F)N(C)C(=O)Cc1ccc(Cl)cc1F (racemic) [Compound 1-46],5

# Test system: barnyard grass (Ec)
# Assay: Test Example 2: herbicidal effects by upland soil treatment;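 as to herbicidal effects, Se (green foxtail): 0-5 growth inhibition grade; 5 = over 90%; 4 = 70-90%; 3 = 50-70%; 2 = 30-50%; 1 = 10-30%; 0 = under 10%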
# Type: in vivo
# Design: scale not given here
# Settings: dose 100 g active ingredient per 10 ares, examined on the 21st day after treatment, standards of Table 44
# How it was run: (§2)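 Pre-emergence test: barnyard grass and green foxtail sown in upland soil, then soil surface sprayed with wettable-powder formulation at 100 g active ingredient per 10 ares (100 l per 10 ares). Grown in greenhouse; herbicidal effect scored on a rating scale 21 days after treatment.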
row,SMILES,"herbicidal effects, Ec (barnyard grass)"
1,Cc1ccc(CC(=O)N(C)C(c2cncnc2C(F)(F)F)C(C)(C)C)cc1 (racemic) [Compound 1-55],5
2,CC(C)C(c1cncnc1C(F)(F)F)N(C)C(=O)Cc1ccc(I)cc1 (racemic) [Compound 1-42],5
3,CCN(C(=O)Cc1ccc(C#N)cc1)C(c1cncnc1C(F)(F)F)C(C)C (racemic) [Compound 1-98],5
4,CC(C)C(c1cncnc1C(F)(F)F)N(C)C(=O)Cc1ccc(OC(F)(F)F)cc1 (racemic) [Compound 1-95],5
5,CN(C(=O)Cc1ccc(F)cc1)C(c1cncnc1C(F)(F)F)C(C)(C)C (racemic) [Compound 1-53],5
6,CCC(C)C(c1cncnc1C(F)(F)F)N(C)C(=O)Cc1ccc(Cl)cc1 (mixture of isomers) [Compound 1-59],5
7,CC(C)C(c1cncnc1C(F)(F)F)N(C)C(=O)Cc1ccc(Cl)cc1F (racemic) [Compound 1-46],5

# Test system: green foxtail (Se)
# Assay: as above
# Type: in vivo
# Settings: dose 100 g active ingredient per 10 ares, examined on the 21st day after treatment, standards of Table 44
# How it was run: as §2
row,SMILES,"herbicidal effects, Se (green foxtail)"
1,Cc1ccc(CC(=O)N(C)C(c2cncnc2C(F)(F)F)C(C)(C)C)cc1 (racemic) [Compound 1-55],5
2,CC(C)C(c1cncnc1C(F)(F)F)N(C)C(=O)Cc1ccc(I)cc1 (racemic) [Compound 1-42],5
3,CCN(C(=O)Cc1ccc(C#N)cc1)C(c1cncnc1C(F)(F)F)C(C)C (racemic) [Compound 1-98],5
4,CC(C)C(c1cncnc1C(F)(F)F)N(C)C(=O)Cc1ccc(OC(F)(F)F)cc1 (racemic) [Compound 1-95],5
5,CN(C(=O)Cc1ccc(F)cc1)C(c1cncnc1C(F)(F)F)C(C)(C)C (racemic) [Compound 1-53],5
6,CCC(C)C(c1cncnc1C(F)(F)F)N(C)C(=O)Cc1ccc(Cl)cc1 (mixture of isomers) [Compound 1-59],5
7,CC(C)C(c1cncnc1C(F)(F)F)N(C)C(=O)Cc1ccc(Cl)cc1F (racemic) [Compound 1-46],5

# Test system: barnyard grass (Ec)
# Assay: Test Example 3: herbicidal effects by foliage treatment in upland field
# Type: in vivo
# Design: scale not given here
# Settings: dose 100 g active ingredient per 10 ares, examined on the 14th day after treatment
# How it was run: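 Barnyard grass and green foxtail were grown in upland soil for 2 weeks in a greenhouse. A water-diluted wettable powder was sprayed over the foliage at 100 l per 10 ares, giving 100 g active ingredient per 10 ares. Herbicidal effect was scored on day 14 after treatment.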
row,SMILES,"Ec (herbicidal effects, index)"
1,Cc1ccc(CC(=O)N(C)C(c2cncnc2C(F)(F)F)C(C)(C)C)cc1 (racemic) [Compound 1-55],4
2,CC(C)C(c1cncnc1C(F)(F)F)N(C)C(=O)Cc1ccc(I)cc1 (racemic) [Compound 1-42],4
3,CCN(C(=O)Cc1ccc(C#N)cc1)C(c1cncnc1C(F)(F)F)C(C)C (racemic) [Compound 1-98],4
4,CC(C)C(c1cncnc1C(F)(F)F)N(C)C(=O)Cc1ccc(OC(F)(F)F)cc1 (racemic) [Compound 1-95],5
5,CN(C(=O)Cc1ccc(F)cc1)C(c1cncnc1C(F)(F)F)C(C)(C)C (racemic) [Compound 1-53],4
6,CCC(C)C(c1cncnc1C(F)(F)F)N(C)C(=O)Cc1ccc(Cl)cc1 (mixture of isomers) [Compound 1-59],4
7,CC(C)C(c1cncnc1C(F)(F)F)N(C)C(=O)Cc1ccc(Cl)cc1F (racemic) [Compound 1-46],4

# Test system: barnyard grass (Eo)
# Assay: Test Example 4: selectivity for a crop plant by flooded paddy field treatment
# Type: in vivo
# Design: scale not given here
# Settings: dose 25 g active ingredient per 10 ares, examined on the 21st day after treatment
# How it was run: (§3)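 Flooded paddy pots, 3 cm water; weeds sown from seed, rice transplanted at 2nd-leaf stage. Day after: wettable powder diluted in water, applied dropwise to water surface, 25 g a.i./10 a. Greenhouse; herbicidal effect rated at day 21.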
row,SMILES,"Eo (herbicidal effects, index)"
1,Cc1ccc(CC(=O)N(C)C(c2cncnc2C(F)(F)F)C(C)(C)C)cc1 (racemic) [Compound 1-55],5
2,CC(C)C(c1cncnc1C(F)(F)F)N(C)C(=O)Cc1ccc(I)cc1 (racemic) [Compound 1-42],5
3,CCN(C(=O)Cc1ccc(C#N)cc1)C(c1cncnc1C(F)(F)F)C(C)C (racemic) [Compound 1-98],5
4,CN(C(=O)Cc1ccc(F)cc1)C(c1cncnc1C(F)(F)F)C(C)(C)C (racemic) [Compound 1-53],5
5,CCC(C)C(c1cncnc1C(F)(F)F)N(C)C(=O)Cc1ccc(Cl)cc1 (mixture of isomers) [Compound 1-59],5
6,CC(C)C(c1cncnc1C(F)(F)F)N(C)C(=O)Cc1ccc(Cl)cc1F (racemic) [Compound 1-46],5

# Test system: monochoria (Mo)
# Assay: as above
# Type: in vivo
# Design: scale not given here
# Settings: dose 25 g active ingredient per 10 ares, examined on the 21st day after treatment
# How it was run: as §3
row,SMILES,"Mo (herbicidal effects, index)"
1,Cc1ccc(CC(=O)N(C)C(c2cncnc2C(F)(F)F)C(C)(C)C)cc1 (racemic) [Compound 1-55],5
2,CC(C)C(c1cncnc1C(F)(F)F)N(C)C(=O)Cc1ccc(I)cc1 (racemic) [Compound 1-42],5
3,CCN(C(=O)Cc1ccc(C#N)cc1)C(c1cncnc1C(F)(F)F)C(C)C (racemic) [Compound 1-98],5
4,CN(C(=O)Cc1ccc(F)cc1)C(c1cncnc1C(F)(F)F)C(C)(C)C (racemic) [Compound 1-53],5
5,CCC(C)C(c1cncnc1C(F)(F)F)N(C)C(=O)Cc1ccc(Cl)cc1 (mixture of isomers) [Compound 1-59],5
6,CC(C)C(c1cncnc1C(F)(F)F)N(C)C(=O)Cc1ccc(Cl)cc1F (racemic) [Compound 1-46],5

# Test system: rice (Or)
# Assay: as above
# Type: in vivo
# Design: scale not given here
# Settings: rice transplanted at second leaf stage, dose 25 g active ingredient per 10 ares, examined on the 21st day after treatment
# How it was run: as §3
row,SMILES,"Or (effect on crop plant rice, index)"
1,CC(C)C(c1cncnc1C(F)(F)F)N(C)C(=O)Cc1ccc(I)cc1 (racemic) [Compound 1-42],0
2,CN(C(=O)Cc1ccc(F)cc1)C(c1cncnc1C(F)(F)F)C(C)(C)C (racemic) [Compound 1-53],1
3,CC(C)C(c1cncnc1C(F)(F)F)N(C)C(=O)Cc1ccc(Cl)cc1F (racemic) [Compound 1-46],0

# The next lines start with the values.
row,"Or (effect on crop plant rice, index)",SMILES
1,1,Cc1ccc(CC(=O)N(C)C(c2cncnc2C(F)(F)F)C(C)(C)C)cc1 (racemic) [Compound 1-55]
2,1,CCN(C(=O)Cc1ccc(C#N)cc1)C(c1cncnc1C(F)(F)F)C(C)C (racemic) [Compound 1-98]
3,0,CCC(C)C(c1cncnc1C(F)(F)F)N(C)C(=O)Cc1ccc(Cl)cc1 (mixture of isomers) [Compound 1-59]

# Test system: barnyard grass (Ec)
# Assay: Test Example 5: selectivity for a crop plant by soil treatment in upland field
# Type: in vivo
# Design: scale not given here
# Settings: dose 25 gai/10a, 21st day after treatment, index per Table 44
# Experimental: (§4) In a 80 cm^2 plastic pot, upland soil was filled, and seeds of barnyard grass (Ec), green foxtail (Se), soybean (G1), wheat (Tr) and corn (Ze) were sown and covered with soil. A wettable powder prepared in accordance with Formulation Example 1 was diluted with water and uniformly applied to the soil surface by a small size spray at a rate of 100 l per 10 ares so that the dose of the active ingredient would be 25 g per 10 ares. Thereafter, cultivation was carried out in a green house, and on the 21st day after the treatment, the herbicidal effects were examined in accordance with the standards of Table 44.
row,SMILES,Ec (herbicidal effect index)
1,Cc1ccc(CC(=O)N(C)C(c2cncnc2C(F)(F)F)C(C)(C)C)cc1 (racemic) [Compound 1-55],5
2,CC(C)C(c1cncnc1C(F)(F)F)N(C)C(=O)Cc1ccc(I)cc1 (racemic) [Compound 1-42],5
3,CCN(C(=O)Cc1ccc(C#N)cc1)C(c1cncnc1C(F)(F)F)C(C)C (racemic) [Compound 1-98],4
4,CC(C)C(c1cncnc1C(F)(F)F)N(C)C(=O)Cc1ccc(OC(F)(F)F)cc1 (racemic) [Compound 1-95],5
5,CN(C(=O)Cc1ccc(F)cc1)C(c1cncnc1C(F)(F)F)C(C)(C)C (racemic) [Compound 1-53],4
6,CCC(C)C(c1cncnc1C(F)(F)F)N(C)C(=O)Cc1ccc(Cl)cc1 (mixture of isomers) [Compound 1-59],5
7,CC(C)C(c1cncnc1C(F)(F)F)N(C)C(=O)Cc1ccc(Cl)cc1F (racemic) [Compound 1-46],5

# Test system: corn (Ze)
# Assay: as above
# Type: in vivo
# Design: scale not given here
# Settings: dose 25 gai/10a, 21st day after treatment, index per Table 44
# Experimental: as §4
row,SMILES,Ze (herbicidal effect index on crop)
1,Cc1ccc(CC(=O)N(C)C(c2cncnc2C(F)(F)F)C(C)(C)C)cc1 (racemic) [Compound 1-55],0
2,CC(C)C(c1cncnc1C(F)(F)F)N(C)C(=O)Cc1ccc(I)cc1 (racemic) [Compound 1-42],0
3,CCN(C(=O)Cc1ccc(C#N)cc1)C(c1cncnc1C(F)(F)F)C(C)C (racemic) [Compound 1-98],1
4,CC(C)C(c1cncnc1C(F)(F)F)N(C)C(=O)Cc1ccc(OC(F)(F)F)cc1 (racemic) [Compound 1-95],0
5,CN(C(=O)Cc1ccc(F)cc1)C(c1cncnc1C(F)(F)F)C(C)(C)C (racemic) [Compound 1-53],0
6,CCC(C)C(c1cncnc1C(F)(F)F)N(C)C(=O)Cc1ccc(Cl)cc1 (mixture of isomers) [Compound 1-59],0
7,CC(C)C(c1cncnc1C(F)(F)F)N(C)C(=O)Cc1ccc(Cl)cc1F (racemic) [Compound 1-46],0

# Test system: soybean (G1)
# Assay: as above
# Type: in vivo
# Design: scale not given here
# Settings: dose 25 gai/10a, 21st day after treatment, index per Table 44
# Experimental: as §4
row,SMILES,Gl (herbicidal effect index on crop)
1,Cc1ccc(CC(=O)N(C)C(c2cncnc2C(F)(F)F)C(C)(C)C)cc1 (racemic) [Compound 1-55],1
2,CC(C)C(c1cncnc1C(F)(F)F)N(C)C(=O)Cc1ccc(I)cc1 (racemic) [Compound 1-42],0
3,CCN(C(=O)Cc1ccc(C#N)cc1)C(c1cncnc1C(F)(F)F)C(C)C (racemic) [Compound 1-98],0
4,CC(C)C(c1cncnc1C(F)(F)F)N(C)C(=O)Cc1ccc(OC(F)(F)F)cc1 (racemic) [Compound 1-95],1
5,CN(C(=O)Cc1ccc(F)cc1)C(c1cncnc1C(F)(F)F)C(C)(C)C (racemic) [Compound 1-53],1
6,CCC(C)C(c1cncnc1C(F)(F)F)N(C)C(=O)Cc1ccc(Cl)cc1 (mixture of isomers) [Compound 1-59],0
7,CC(C)C(c1cncnc1C(F)(F)F)N(C)C(=O)Cc1ccc(Cl)cc1F (racemic) [Compound 1-46],1

# Test system: wheat (Tr)
# Assay: as above
# Type: in vivo
# Design: scale not given here
# Settings: dose 25 gai/10a, 21st day after treatment, index per Table 44
# Experimental: as §4
row,SMILES,Tr (herbicidal effect index on crop)
1,Cc1ccc(CC(=O)N(C)C(c2cncnc2C(F)(F)F)C(C)(C)C)cc1 (racemic) [Compound 1-55],1
2,CC(C)C(c1cncnc1C(F)(F)F)N(C)C(=O)Cc1ccc(I)cc1 (racemic) [Compound 1-42],0
3,CCN(C(=O)Cc1ccc(C#N)cc1)C(c1cncnc1C(F)(F)F)C(C)C (racemic) [Compound 1-98],1
4,CC(C)C(c1cncnc1C(F)(F)F)N(C)C(=O)Cc1ccc(OC(F)(F)F)cc1 (racemic) [Compound 1-95],0
5,CN(C(=O)Cc1ccc(F)cc1)C(c1cncnc1C(F)(F)F)C(C)(C)C (racemic) [Compound 1-53],2
6,CCC(C)C(c1cncnc1C(F)(F)F)N(C)C(=O)Cc1ccc(Cl)cc1 (mixture of isomers) [Compound 1-59],1
7,CC(C)C(c1cncnc1C(F)(F)F)N(C)C(=O)Cc1ccc(Cl)cc1F (racemic) [Compound 1-46],3
